Experimental data from US10131652B2, “Pyrimidinyloxy benzene derivatives as herbicides” (E. I. DU PONT DE NEMOURS AND COMPANY, priority 2014, dated 2018).
Read-outs that look alike come from different tables or passages of the source.

Experiments:
Assay in all cases: Test F pre-/postemergence plant response
Type in all cases: in vivo
[1] = tested on: arrowleaf sida (Sida rhombifolia); conditions: Sida rhombifolia, scale 0 to 100, read-out: Plant response rating, Arrowleaf Sida
Summary of the method: (§1)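 Seeds were sown in silt loam and sprayed preemergence; in parallel, plants at 2–18 cm (1- to 4-leaf) received postemergence sprays. Test chemicals were in a non-phytotoxic solvent with surfactant. After 14–21 days in the greenhouse, injury was rated visually against controls on a 0–100 scale (100 = complete control).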

[2] = tested on: barnyardgrass (Echinochloa crus-galli); conditions: Echinochloa crus-galli, scale 0 to 100, read-out: Plant response rating, Barnyardgrass
Summary of the method: as §1

corn (Zea mays) = conditions: Zea mays, scale 0 to 100
Summary of the method: as §1

[3] = tested on: dayflower (Virginia (VA) dayflower, Commelina virginica); conditions: Commelina virginica, scale 0 to 100, read-out: Plant response rating, Dayflower, VA
Summary of the method: as §1

[4] = tested on: fall panicum (Panicum dichotomiflorum); conditions: Panicum dichotomiflorum, scale 0 to 100, read-out: Plant response rating, Panicum, Fall
Summary of the method: as §1

[5] = tested on: giant foxtail (Setaria faberii); conditions: Setaria faberi, pre-emergence, scale 0 to 100, read-out: Plant response rating, Foxtail, Giant
Summary of the method: as §1

[6] = tested on: green foxtail (Setaria viridis); conditions: Setaria viridis, pre-emergence, scale 0 to 100, read-out: Plant response rating, Foxtail, Green
Summary of the method: as §1

[7] = tested on: johnsongrass (Sorghum halepense); conditions: Sorghum halepense, pre-emergence, scale 0 to 100, read-out: Plant response rating, Johnsongrass
Summary of the method: as §1

[8] = post-emergence, 8 g ai/ha Postemergence
[9] = post-emergence, 16 g ai/ha Postemergence
[10] = post-emergence, 31 g ai/ha Postemergence
[11] = post-emergence, 62 g ai/ha Postemergence
[12] = post-emergence, 125 g ai/ha Postemergence
[13] = pre-emergence, 8 g ai/ha Preemergence
[14] = pre-emergence, 16 g ai/ha Preemergence
[15] = pre-emergence, 31 g ai/ha Preemergence
[16] = pre-emergence, 62 g ai/ha Preemergence
[17] = pre-emergence, 125 g ai/ha Preemergence

Question: What does the source list for `FC(F)c1cc(-c2ccccc2Oc2ncc(Br)cn2)no1` [Compound 62, 5-bromo-2-[2-[5-(difluoromethyl)-3-isoxazolyl]phenoxy]pyrimidine]?
Answer: pest or weed control at 8 g/ha [1, 8]: 65%; pest or weed control at 16 g/ha [1, 9]: 80%; pest or weed control at 31 g/ha [1, 10]: 95%; pest or weed control at 62 g/ha [1, 11]: 98%; pest or weed control at 125 g/ha [1, 12]: 98%; pest or weed control at 8 g/ha [1, 13]: 0%; pest or weed control at 16 g/ha [1, 14]: 20%; pest or weed control at 31 g/ha [1, 15]: 70%; pest or weed control at 62 g/ha [1, 16]: 95%; pest or weed control at 125 g/ha [1, 17]: 100%; pest or weed control at 8 g/ha [2, 8]: 10%; pest or weed control at 16 g/ha [2, 9]: 15%; pest or weed control at 31 g/ha [2, 10]: 20%; pest or weed control at 62 g/ha [2, 11]: 20%; pest or weed control at 125 g/ha [2, 12]: 20%; pest or weed control at 8 g/ha [2, 13]: 0%; pest or weed control at 16 g/ha [2, 14]: 0%; pest or weed control at 31 g/ha [2, 15]: 0%; pest or weed control at 62 g/ha [2, 16]: 0%; pest or weed control at 125 g/ha [2, 17]: 25%; Corn plant response rating (crop injury, 0 = no effect, 100 = complete kill) at 8 g/ha (corn (Zea mays); [8]): 0%; Corn plant response rating (crop injury, 0 = no effect, 100 = complete kill) at 16 g/ha (corn (Zea mays); [9]): 0%; Corn plant response rating (crop injury, 0 = no effect, 100 = complete kill) at 31 g/ha (corn (Zea mays); [10]): 0%; Corn plant response rating (crop injury, 0 = no effect, 100 = complete kill) at 62 g/ha (corn (Zea mays); [11]): 5%; Corn plant response rating (crop injury, 0 = no effect, 100 = complete kill) at 125 g/ha (corn (Zea mays); [12]): 10%; Corn plant response rating (crop injury, 0 = no effect, 100 = complete kill) at 8 g/ha (corn (Zea mays); [13]): 0%; Corn plant response rating (crop injury, 0 = no effect, 100 = complete kill) at 16 g/ha (corn (Zea mays); [14]): 0%; Corn plant response rating (crop injury, 0 = no effect, 100 = complete kill) at 31 g/ha (corn (Zea mays); [15]): 0%; Corn plant response rating (crop injury, 0 = no effect, 100 = complete kill) at 62 g/ha (corn (Zea mays); [16]): 0%; Corn plant response rating (crop injury, 0 = no effect, 100 = complete kill) at 125 g/ha (corn (Zea mays); [17]): 0%; pest or weed control at 8 g/ha [3, 8]: 0%; pest or weed control at 16 g/ha [3, 9]: 0%; pest or weed control at 31 g/ha [3, 10]: 5%; pest or weed control at 62 g/ha [3, 11]: 25%; pest or weed control at 125 g/ha [3, 12]: 65%; pest or weed control at 8 g/ha [3, 13]: 0%; pest or weed control at 16 g/ha [3, 14]: 0%; pest or weed control at 31 g/ha [3, 15]: 0%; pest or weed control at 62 g/ha [3, 16]: 30%; pest or weed control at 125 g/ha [3, 17]: 80%; pest or weed control at 8 g/ha [4, 8]: 0%; pest or weed control at 16 g/ha [4, 9]: 0%; pest or weed control at 31 g/ha [4, 10]: 5%; pest or weed control at 62 g/ha [4, 11]: 10%; pest or weed control at 125 g/ha [4, 12]: 60%; pest or weed control at 8 g/ha [4, 13]: 0%; pest or weed control at 16 g/ha [4, 14]: 0%; pest or weed control at 31 g/ha [4, 15]: 0%; pest or weed control at 125 g/ha [4, 17]: 100%; pest or weed control at 62 g/ha ([4]; pre-emergence, Preemergence): 95%; pest or weed control at 8 g/ha ([5]; 8 g ai/ha Preemergence): 0%; pest or weed control at 16 g/ha ([5]; 16 g ai/ha Preemergence): 15%; pest or weed control at 31 g/ha ([5]; 31 g ai/ha Preemergence): 35%; pest or weed control at 62 g/ha ([5]; 62 g ai/ha Preemergence): 65%; pest or weed control at 125 g/ha ([5]; 125 g ai/ha Preemergence): 75%; pest or weed control at 8 g/ha ([6]; 8 g ai/ha Preemergence): 0%; pest or weed control at 16 g/ha ([6]; 16 g ai/ha, Preemergence): 0%; pest or weed control at 31 g/ha ([6]; 31 g ai/ha, Preemergence): 10%; pest or weed control at 125 g/ha ([6]; 125 g ai/ha, Preemergence): 90%; pest or weed control at 62 g/ha ([6]; Preemergence): 40%; pest or weed control at 8 g/ha ([7]; 8 g ai/ha Preemergence): 0%; pest or weed control at 16 g/ha ([7]; 16 g ai/ha Preemergence): 0%
